The results in this text go back to US8545834B2, “G-substrate for the treatment and prevention of parkinson's disease” (The McLean Hospital Corporation, priority 2007, dated 2013).

The test has as its system A9 DA neurons. It is filed as in vivo, rat. The text has this:
Retrograde 6-OHDA lesioning within the striatum is a well-established method of creating progressive degeneration of A9 DA neurons. The loss of TH immunoreactivity reflects actual loss of DA neurons (Sauer, 1994).
The in vivo neuroprotective effects of G-substrate against 6-OHDA-induced toxicity was examined by injecting 6-OHDA into the corpus striatum of rats which previously had either G-substrate or control genes (empty vector or YFP) delivered to the midbrain using the lentivirus as described above. 6-OHDA induced approximately an 80% loss of TH-positive neurons in the midbrain (FIG. 12Q) and complete loss of TH immunoreactivity in the striatum (data not shown). The severity of the striatal insult in this paradigm precluded our ability to usefully measure protection of striatal nerve terminals. […] Furthermore, most of the surviving TH-positive neurons in lenti G-substrate-transduced rats were strongly G-substrate-positive (FIGS. 12G-12L).
Rats received two 2.75 μl stereotaxic injections of either lenti-empty vector+lenti-eGFP (n=19), lenti-G substrate+lenti-eGFP (n=19), or lenti-YFP (n=14) and delivered at a rate of 0.2 μl/min using microinfusion pumps (Stoelting Co, Wood Dale, Ill.) with 10 min wait times after each injection. Lenti-eGFP was added to each condition, excluding the YFP condition, to serve as an exogenous marker for surgical targeting (0.5 μl of the total 5.5 μl A volume). SN injection coordinates were as follows: site 1: AP −4.8, ML −2.0, DV −7.2; site 2: AP −5.5, ML −1.8, DV −7.2; and tooth bar set at −3.3. Virus titers (p24) were as follows: G substrate, 60 ng/μl; empty vector, 60 ng/μl; eGFP, 83 ng/μl; and YFP, 60 ng/μl.
Two weeks following lentiviral injection, animals (lenti-empty vector+lenti-eGFP (n=9), lenti-G substrate+lenti-eGFP (n=9), or lenti-YFP (n=14)) received three 2.5 μl stereotaxic injections of 3.0 μg/μl 6-OHDA (total dose=22.5 μg 6-OHDA) delivered at a rate of 0.5 μl/min and 5 min wait times after each injection. Striatum injection coordinates were as follows: site 1: AP +1.3, ML −2.8, DV −4.5; site 2: AP +0.2, ML, −3.0, DV −5.0; site 3: AP −0.6, ML −4.0, DV −5.5; and tooth bar set at −3.3. The lesion was allowed to progress for 3 weeks after which animals were sacrificed for post mortem analyses.
Brains were cut frozen in the coronal plane at a thickness of 40 μm on a sliding microtome and six series of sections were stored in cryoprotectant. Two full series of sections were processed for visualization of tyrosine hydroxylase (TH) via the biotin-labeled antibody procedure. Briefly, following several washes in a PBS solution containing 0.01% Triton X-100 (PBS-T), endogenous peroxidase was quenched in a 3% hydrogen peroxide solution and background staining was then inhibited in a 5% normal goat serum solution. […]

“G-substrate: human wild type G-substrate (SEQ ID NO.: 1) overexpressed from a lentiviral vector”: under “6-OHDA-lesioned rats”, the DA neuronal protection is ~10%. Moreover, the “transduced DA neurons protected from 6-OHDA-induced toxicity” value (worked out from 22.3% transduction and ˜10% protection) is listed as “approximately 50%”.
